Assay [1] concerns BDNF, NGF, NT-3, and GAP-43 mRNA. Nature of the assay: NTF mRNA expression in primary hippocampal neurons treated with Aβ (real time PCR). In kind it is cell-based, rat. To be noted: co-treated 24 hours or treated 12 hours after Aβ. Here is the method:
Protocol: Primary hippocampal neurons were treated with control buffer (Untreated), Aβ (1 μM, oligomeric form), or 0.5 nM bryostatin for 24 hours. Some cells were co-treated with Aβ plus 0.5 nM bryostatin (Bryo+Aβ) for 24 hours, or pre-treated with Aβ for 12 hours, washed out, and then treated with bryostatin for additional 12 hours (Aβ+Bryo). Cells were then lysed and total RNA was isolated. Relative expression change of BDNF, NGF, NT-3, and GAP-43 mRNA was quantitatively measured from real time PCR using specific primers against rat BDNF, NGF, NT-3, and GAP-43 mRNA (FIG. 14). A representative gel image is also shown below in FIG. 14 (Mean+SEM, *P<0.05, Aβ compared with untreated; #P<0.05, Bryo+Aβ or Aβ+Bryo compared with Aβ only).
Test A—DCPLA (500 nM): Primary hippocampal neurons were treated with control buffer (Untreated), Aβ (1 μM, oligomer), or 500 nM DCPLA for 24 hours. Some cells were pre-treated with Aβ for 12 hr and then treated with 500 nM DCPLA for 12 hours (Aβ+DCP-LA), or co-treated with Aβ plus 500 nM DCP-LA (DCP-LA+Aβ) for 24 hours. Total RNA was isolated and relative expression change of BDNF, NGF, NT-3, and GAP-43 mRNA was quantitatively measured from real time RT-PCR using specific primers against rat BDNF, NGF, NT-3, and GAP-43 mRNA (FIG. 15). A representative gel image is also shown below in FIG. 15 (Mean+SEM of three independent experiments, *P<0.05, Aβ compared with untreated; #P<0.05, Aβ+Bryo or Bryo+Aβ compared with Aβ only).
Test B—DCPLA-methyl ester (100 nM): Primary hippocampal neurons were treated with control buffer (Untreated), 1 μM Aβ, or 100 nM DCP-LA ME (the methyl ester form of DCP-LA) for 24 hours. Some cells were pre-treated with Aβ for 12 hr and then treated with 100 nM DCP-LA ME for 12 hours (Aβ+DCP-LA ME), or co-treated with Aβ plus […] (DCP-LA ME+Aβ) for 24 hours. Total RNA was isolated and relative expression change of BDNF, NGF, NT-3, and GAP-43 mRNA was quantitatively measured from real time RT-PCR using specific primers against rat BDNF, NGF, NT-3, and GAP-43 mRNA (FIG. 16). […]

The subject of another assay is human neprilysin. In words: Neprilysin activity in SH+hNEP cells (fluorometric). It counts as cell-based. The following applies: 1 nM for 15 min to 3 hours; 0.27, 0.5, 1, or 2 nM for 1 hr (FIG. 32). How it is done: Protocol: Intact SH+hNEP cells were incubated in the absence or presence of bryostatin (1 nM) for 15 min, 30 min, 1 hour, or 3 hours. Cells were then lysed and neprilysin activity was measured. 50 μg of total lysates were separately incubated with 0.5 mM glutaryl-Ala-Ala-Phe-4-methoxy-2-naphthylamide as a substrate. Further incubation with leucine aminopeptidases released free 4-methoxy-2-naphthylamide that was measured fluorometrically at an emission of 425 nm (Mean+SEM of three independent experiments, *P<0.05; **P<0.01, Bryo compared with untreated condition). Intact SH+hNEP cells were incubated in the absence or presence of bryostatin (Bryo) at 0.27, 0.5, 1, or 2 nM concentration for 1 hr, lysed and then neprilysin activity for each condition was fluorometically measured as shown in (A) (Mean+SEM of three independent experiments, *P<0.05; **P<0.01, Bryo compared with untreated condition). Results are shown below in FIG. 32 (A—fluorometric results of free 4-methoxy-2-naphthylamide measured at different time points; B—fluorometric results of free 4-methoxy-2-naphthylamide measured at different concentrations of bryostatin).
Immunoprecipitates were subjected to Western blot analysis using phospho-Ser/Thr or neprilysin antibody (Mean+SEM of three independent experiments, **P<0.01, Bryo compared with untreated; #P<0.01, Ro+Bryo compared with Bryo). […]

The next assay relates to cerebral ischemia rats. In words: Pyramidal cells, BDNF and synapses in dorsal hippocampal CA1 area after cerebral ischemia. In kind it is in vivo. To be noted: 15 μg/m^2 tail vein for 5 weeks beginning 24 hours after ischemic/hypoxic event. How it is done:
Protocol: Rats were administered bryostatin-1 (15 μg/m^2, tail vein injection) for 5 weeks beginning 24 hours after the end of the ischemic/hypoxic event. […] Non-treated groups received the same vehicle volumes, mechanism of delivery, and frequency of administration as the treated groups.

Another assay deals with sAPP-α. Nature of the assay: sAPP-α secretion in control cell lines. In kind it is cell-based, human. The following applies: 0.1 nM.

The values below come from patent publication US20160025704A1, “METHODS FOR IDENTIFYING NEUROPROTECTIVE PKC ACTIVATORS” (priority 2013, published 2016).

For the molecule `CCC/C=C/C=C/C(=O)O[C@H]1/C(=C/C(=O)OC)C[C@H]2C[C@H]([C@@H](C)O)OC(=O)C[C@H](O)C[C@@H]3C[C@H](OC(C)=O)C(C)(C)[C@](O)(C[C@@H]4C/C(=C/C(=O)OC)C[C@H](/C=C/C(C)(C)[C@]1(O)O2)O4)O3` [Bryostatin, bryostatin-1], the “NTF mRNA expression decreased by Aβ” value in assay [1] (0.5 nM, Aβ 1 μM oligomeric) was “recovers NTF mRNA expression decreased by Aβ”. For the same molecule, in the assay on human neprilysin, the neprilysin activity entry is “increases neprilysin activity”. In addition, in the assay with cerebral ischemia rats, the “immunofluorescence intensity of BDNF” value is on record as “induced an increase in the immunofluorescence intensity of brain-derived neurotrophic factor (BDNF)”; the “loss of dendritic spines and synapses” value was “protected the loss of dendritic spines and synapses”. The neuronal loss result with cerebral ischemia rats (9 days after last dose) is reported as “prevented neuronal loss”. Besides, the “sAPP-α secretion in two control cell lines” value in the assay on sAPP-α was “effective in enhancing secretion in two control cell lines, although to a lesser extent than in the AD cell line”.
For the molecule `CCCCCC1CC1CC1CC1CCCCCCCC(=O)O` (stereo not shown) [DCPLA, 8-[2-(2-pentylcyclopropyl)methyl]-cyclopropaneoctanoic acid], in assay [1] (500 nM, Aβ 1 μM oligomer), the “NTF mRNA expression decreased by Aβ” value was “recovers NTF mRNA expression decreased by Aβ”.
